Source: ChEMBL document CHEMBL1201862, “PubChem BioAssay data set” (2004)
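48-hour exposure; five concentrations; linearly interpolated endpoints. The concentration for 50% growth inhibition is given as GI50.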 Activity calls are given as the source filed them. Cut-off read from the data, not from the text of the source: active = GI50 up to about 1.1 µM and inactive = higher.

Legend:
Experiment in all cases: NCI-60 cell line screen, 48 h
A549 = tested on: A549
COLO 205 = tested on: COLO 205
EKVX = tested on: EKVX
HOP-62 = tested on: HOP-62
HOP-92 = tested on: HOP-92
HT-29 = tested on: HT-29
KM12 = tested on: KM12
M14 = tested on: M14
OVCAR-3 = tested on: OVCAR-3
OVCAR-4 = tested on: OVCAR-4
OVCAR-8 = tested on: OVCAR-8
SK-OV-3 = tested on: SK-OV-3
SN12C = tested on: SN12C
SNB-19 = tested on: SNB-19
SW-620 = tested on: SW-620
TK-10 = tested on: TK-10
U-251 = tested on: U-251
UACC-257 = tested on: UACC-257
UACC-62 = tested on: UACC-62
UO-31 = tested on: UO-31

SMILES	GI50 (A549)	GI50 (COLO 205)	GI50 (EKVX)	GI50 (HOP-62)	GI50 (HOP-92)	GI50 (HT-29)	GI50 (KM12)	GI50 (M14)	GI50 (OVCAR-3)	GI50 (OVCAR-4)	GI50 (OVCAR-8)	GI50 (SK-OV-3)	GI50 (SN12C)	GI50 (SNB-19)	GI50 (SW-620)	GI50 (TK-10)	GI50 (U-251)	GI50 (UACC-257)	GI50 (UACC-62)	GI50 (UO-31)
Oc1ccnc(SCc2ccc(Cl)cc2)n1	> 100 µM (inactive)	> 100 µM (inactive)	> 100 µM (inactive)	> 100 µM (inactive)	> 100 µM (inactive)	> 100 µM (inactive)	> 100 µM (inactive)	> 100 µM (inactive)	57.3 µM (inactive)	> 100 µM (inactive)	> 100 µM (inactive)	> 100 µM (inactive)	> 100 µM (inactive)	> 100 µM (inactive)	> 100 µM (inactive)	> 100 µM (inactive)	> 100 µM (inactive)	> 100 µM (inactive)	> 100 µM (inactive)	> 100 µM (inactive)
COc1ccc(-c2cs/c(=N\c3ccccc3)n2CCCN(C)C)cc1	17.1 µM (inactive)	–	–	13.6 µM (inactive)	26.3 µM (inactive)	–	15 µM (inactive)	10.7 µM (inactive)	17.1 µM (inactive)	23.3 µM (inactive)	21.8 µM (inactive)	15.6 µM (inactive)	33.7 µM (inactive)	19.2 µM (inactive)	> 10 µM (inactive)	14.2 µM (inactive)	43.4 µM (inactive)	18.9 µM (inactive)	15.1 µM (inactive)	12.4 µM (inactive)
CC1(Br)S(=O)(=O)OCCOS1(=O)=O	> 100 µM (inactive)	> 100 µM (inactive)	> 100 µM (inactive)	> 100 µM (inactive)	> 100 µM (inactive)	> 100 µM (inactive)	–	> 100 µM (inactive)	> 100 µM (inactive)	> 100 µM (inactive)	> 100 µM (inactive)	> 100 µM (inactive)	> 100 µM (inactive)	> 100 µM (inactive)	> 100 µM (inactive)	> 100 µM (inactive)	> 100 µM (inactive)	> 100 µM (inactive)	> 100 µM (inactive)	> 100 µM (inactive)
CCNC(=O)COc1ccc(Cl)c(C)c1	> 100 µM (inactive)	> 100 µM (inactive)	–	> 100 µM (inactive)	> 100 µM (inactive)	> 100 µM (inactive)	> 100 µM (inactive)	> 100 µM (inactive)	> 100 µM (inactive)	> 100 µM (inactive)	–	> 100 µM (inactive)	> 100 µM (inactive)	> 100 µM (inactive)	> 100 µM (inactive)	> 100 µM (inactive)	> 100 µM (inactive)	> 100 µM (inactive)	> 100 µM (inactive)	> 100 µM (inactive)
O=C1/C(=C/C=C/c2ccccc2)CCC1CNc1ccccc1 (stereo not drawn)	> 66.2 µM (inactive)	28.9 µM (inactive)	> 100 µM (inactive)	> 100 µM (inactive)	47.8 µM (inactive)	24.7 µM (inactive)	14.9 µM (inactive)	30.2 µM (inactive)	23.7 µM (inactive)	99.3 µM (inactive)	37.4 µM (inactive)	> 100 µM (inactive)	23.2 µM (inactive)	> 55 µM (inactive)	18.4 µM (inactive)	33 µM (inactive)	> 59.3 µM (inactive)	42.5 µM (inactive)	50.4 µM (inactive)	59.8 µM (inactive)
CCOC(=O)c1sc2nc(SC)nc(N3CCCCC3)c2c1N	> 100 µM (inactive)	> 100 µM (inactive)	–	> 100 µM (inactive)	> 100 µM (inactive)	> 100 µM (inactive)	> 100 µM (inactive)	> 100 µM (inactive)	> 100 µM (inactive)	> 100 µM (inactive)	> 100 µM (inactive)	> 100 µM (inactive)	> 100 µM (inactive)	> 100 µM (inactive)	> 100 µM (inactive)	> 100 µM (inactive)	> 100 µM (inactive)	5.07 µM (inactive)	> 100 µM (inactive)	> 100 µM (inactive)
FC(F)(Sc1nc2ccccc2[nH]1)c1nc2ccccc2o1	> 100 µM (inactive)	> 100 µM (inactive)	–	> 100 µM (inactive)	> 100 µM (inactive)	> 100 µM (inactive)	> 100 µM (inactive)	> 100 µM (inactive)	> 100 µM (inactive)	> 100 µM (inactive)	43.1 µM (inactive)	> 100 µM (inactive)	> 100 µM (inactive)	–	> 100 µM (inactive)	> 100 µM (inactive)	> 100 µM (inactive)	> 100 µM (inactive)	> 100 µM (inactive)	> 100 µM (inactive)
Sc1ncc(-c2cncc(-c3cnc(S)nc3)n2)cn1	> 100 µM (inactive)	> 100 µM (inactive)	> 100 µM (inactive)	–	> 100 µM (inactive)	> 100 µM (inactive)	> 100 µM (inactive)	> 100 µM (inactive)	> 100 µM (inactive)	> 100 µM (inactive)	> 100 µM (inactive)	> 100 µM (inactive)	> 100 µM (inactive)	> 100 µM (inactive)	> 100 µM (inactive)	> 100 µM (inactive)	> 100 µM (inactive)	> 100 µM (inactive)	> 100 µM (inactive)	> 100 µM (inactive)
Cn1c(=O)c(Cl)c(N=[N+]=[N-])c2ccccc21	94.4 µM (inactive)	> 100 µM (inactive)	22.1 µM (inactive)	> 100 µM (inactive)	84.1 µM (inactive)	> 100 µM (inactive)	0.0324 µM (active)	–	33.3 µM (inactive)	55.7 µM (inactive)	> 100 µM (inactive)	> 100 µM (inactive)	56.5 µM (inactive)	> 100 µM (inactive)	> 100 µM (inactive)	> 100 µM (inactive)	> 100 µM (inactive)	> 100 µM (inactive)	68.1 µM (inactive)	> 100 µM (inactive)
CCOC(=O)Cc1cc(OC)c(OC)cc1/C(Cl)=C(\CO)c1ccc(OC)c(OC)c1	> 100 µM (inactive)	> 100 µM (inactive)	> 100 µM (inactive)	–	25.2 µM (inactive)	> 100 µM (inactive)	–	> 100 µM (inactive)	57.7 µM (inactive)	44.4 µM (inactive)	> 100 µM (inactive)	> 100 µM (inactive)	> 100 µM (inactive)	50.2 µM (inactive)	> 100 µM (inactive)	> 100 µM (inactive)	64 µM (inactive)	> 100 µM (inactive)	> 100 µM (inactive)	80.5 µM (inactive)
CN(C)CCCNC(=S)S	> 100 µM (inactive)	> 100 µM (inactive)	> 100 µM (inactive)	> 100 µM (inactive)	> 100 µM (inactive)	> 100 µM (inactive)	> 100 µM (inactive)	> 100 µM (inactive)	> 100 µM (inactive)	> 100 µM (inactive)	> 100 µM (inactive)	> 100 µM (inactive)	> 100 µM (inactive)	> 100 µM (inactive)	> 100 µM (inactive)	> 100 µM (inactive)	> 100 µM (inactive)	> 100 µM (inactive)	–	–
COC(=O)C12C3C4C1C1C2C3C41C(=O)O (stereo not drawn)	> 100 µM (inactive)	> 100 µM (inactive)	> 100 µM (inactive)	> 100 µM (inactive)	> 100 µM (inactive)	> 100 µM (inactive)	–	> 100 µM (inactive)	> 100 µM (inactive)	> 100 µM (inactive)	> 100 µM (inactive)	> 100 µM (inactive)	> 100 µM (inactive)	> 100 µM (inactive)	> 100 µM (inactive)	> 100 µM (inactive)	> 100 µM (inactive)	> 100 µM (inactive)	> 100 µM (inactive)	> 100 µM (inactive)
COC1=CC(=O)[C@@]2(C)C(C)[C@H](c3ccccc3)[C@H]2C1=O (stereo partly drawn)	> 100 µM (inactive)	> 100 µM (inactive)	> 100 µM (inactive)	> 100 µM (inactive)	> 100 µM (inactive)	> 100 µM (inactive)	> 100 µM (inactive)	> 100 µM (inactive)	> 100 µM (inactive)	> 100 µM (inactive)	> 100 µM (inactive)	> 100 µM (inactive)	–	> 100 µM (inactive)	> 100 µM (inactive)	> 100 µM (inactive)	> 100 µM (inactive)	> 100 µM (inactive)	> 100 µM (inactive)	> 100 µM (inactive)
OC1(c2ccc(Cl)cc2)c2ccc3ccccc3c2C2=N[C@H]3CCCC[C@@H]3N21 (stereo partly drawn)	10 µM (inactive)	5.81 µM (inactive)	3.09 µM (inactive)	2.54 µM (inactive)	16.9 µM (inactive)	–	5.16 µM (inactive)	2.52 µM (inactive)	1.63 µM (inactive)	> 100 µM (inactive)	1.55 µM (inactive)	14 µM (inactive)	38.5 µM (inactive)	36.8 µM (inactive)	16.8 µM (inactive)	1.52 µM (inactive)	5.82 µM (inactive)	–	7.93 µM (inactive)	5.73 µM (inactive)
COc1cc(C)c(CC/C(C)=C/Cc2cc(O)ccc2O)c(C)c1C [PANICEIN A HYDROQUINONE]	> 25 µM (inactive)	> 25 µM (inactive)	> 25 µM (inactive)	–	> 25 µM (inactive)	> 25 µM (inactive)	> 25 µM (inactive)	> 25 µM (inactive)	> 25 µM (inactive)	> 25 µM (inactive)	> 25 µM (inactive)	> 25 µM (inactive)	> 25 µM (inactive)	> 25 µM (inactive)	> 25 µM (inactive)	> 25 µM (inactive)	> 25 µM (inactive)	–	–	> 25 µM (inactive)
